Experimental data taken from patent US20060280787A1, “Pharmaceutical formulation of the tubulin inhibitor indibulin for oral administration with improved pharmacokinetic properties, and process for the manufacture thereof” (priority 2005, published 2006).

Legend:
[1] = Solubility of Indibulin in solvents; assay type: physicochemical
Text: (§1) Indibulin is obtained by chemical synthesis as a white crystalline powder. Its solubility in hydrophilic solvents is poor. […] Due to these properties, the bioavailability of pure Indibulin is very low, as is Indibulin's bioavailability in common pharmaceutical dosage forms, e.g., powder, granula, tablets or capsules.
However, these organic solvents cannot be used for application in humans due to their toxicity.

[2] = test system: microtubules in tumor cells; assay: Polymerization of microtubules in tumor cells; assay type: cell-based
Text: (§2) Indibulin is a synthetic small molecule tubulin inhibitor with significant antitumor activity in vitro and in vivo. […] Furthermore, the molecule selectively blocks cell cycle progression at metaphase.

[3] = test system: microtubules; assay: Polymerization of microtubules in a cell-free system; assay type: biochemical
Text: as §2

[4] = Neurological symptoms in animal experiments; assay type: in vivo, animals
Text: (§3) In vitro, Indibulin exerts significant antitumor activity against a variety of malignancies (e.g., prostate, brain, breast, pancreas, and colon). […] Based on its mechanism of action, it is expected to target all types of solid tumors. […] Another advantage for further development is its easy synthesis, in contrast to other tubulin-inhibitory compounds.

[5] = Tolerability in preclinical experiments in rodents; assay type: in vivo; conditions: highly effective doses
Text: as §3

[6] = Bioavailability of pure Indibulin; assay type: in vivo
Text: as §1

## O=C(Nc1ccncc1)C(=O)c1cn(Cc2ccc(Cl)cc2)c2ccccc12 [Indibulin, N-(pyridine-4-yl)-[1-(4-chlorobenzyl)-indole-3-yl]glyoxylic acid amide]
[1]; dimethylformamide, dimethylsulfoxide and N-methylpyrrolidone
  solubility in organic solvents: sufficient solubility
[1]; roughly >50% w/v acetic acid or lactic acid
  solubility in highly concentrated organic acids: relatively good solvents
[1]; water, methanol, ethanol or 2-propanol
  solubility in hydrophilic solvents: practically insoluble
[2]
  polymerization of microtubules: inhibits polymerization of microtubules
[3]
  polymerization of microtubules: inhibits polymerization of microtubules
[4]
  neurological symptoms: No neurological symptoms
[5]
  tolerability: very well tolerated
[6]
  bioavailability: very low
